From US9999616B2 (ZENITH EPIGENETICS LTD., priority 2013, dated 2018)

Legend:
hIL-6 mRNA = assay: Inhibition of hIL-6 mRNA transcription in LPS-stimulated U937 macrophages; format: cell-based, Human; details: Homo sapiens, U-937, PMA-differentiated U937 cells, 1 h pretreatment, LPS 3 h, read-out: IL-6 activity
Method in brief: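 PMA-differentiated U937 macrophages (60 ng/mL PMA, 3 days) pretreated 1 h with compound in 0.1% DMSO, then stimulated with 1 ug/mL E. coli LPS for 3 h at 37° C. IL-6 mRNA quantified by one-step TaqMan qRT-PCR, normalized to cyclophilin; fold expression relative to control, triplicate wells.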

hApoA-1 mRNA = assay: Up-regulation of hApoA-1 mRNA transcription in Huh7 cells; format: cell-based; details: Homo sapiens, Huh-7, EC170 of hApoA-1 mRNA up-regulation, 48 h, read-out: ApoA-1 activity
Procedure: Huh7 cells (2.5×10^5 per well) were plated in a 96-well plate using 100 μL DMEM per well, (Gibco DMEM supplemented with penicillin/streptomycin and 10% FBS), 72 h before the addition of the compound. The cells are treated with increasing concentrations of the compound or DMSO (0.1%), and incubated at 37° C., 5% CO2 for 48 h. Spent media was removed from the Huh-7 cells and placed on ice for immediate use with the “LDH cytotoxicity assay Kit II” from Abcam. The cells remaining in the plate were rinsed with 100 μL PBS. Cells were harvested using the mRNA Catcher PLUS kit according to manufacturer's instructions. The eluted mRNA was then used in a one-step quantitative real-time PCR reaction, using components of the RNA UltraSense™ One-Step Kit (Life Technologies) together with Applied Biosystems TaqMan® primer-probes for hApoA-1 and Cyclophilin. Real-time PCR plates were run on a ViiA™7 real time PCR machine (Applied Biosystems), data was analyzed, normalizing the Ct values for hApoA-1 to an internal control, prior to determining the fold induction of each unknown sample, relative to the control.

MV4-11 cells = assay: In vivo efficacy in athymic nude mouse acute myeloid leukemia xenograft model using MV4-11 cells; details: athymic nude mouse AML xenograft (MV4-11), oral dosing
Procedure: MV4-11 cells (ATCC) were grown under standard cell culture conditions and (NCr) nu/nu fisol strain of female mice age 6-7 weeks were injected with 5×10^6 cells/animal in 100 μL PBS+100 μL Matrigel in the lower left abdominal flank. By approximately day 18-21 after MV4-11 cells injection, mice were randomized based on tumor volume (L×W×H)/2) of average ˜100-300 mm^3. Mice were dosed orally with compound at 5 to 120 mg/kg b.i.d and/or q.d. on a continuous dosing schedule and at 2.5 to 85 mg/kg q.d. on a 5 day on 2 day off, 100 mg/kg q.d. on a 4 day on and 3 day off, 135 mg/kg q.d. on a 3 day on and 4 day off, 180 mg/kg on a 2 day on and 5 day off and 240 mg/kg on a 1 day on and 6 days off dosing schedules in EA006 formulation at 10 mL/kg body weight dose volume. Tumor measurements were taken with electronic micro calipers and body weights measured on alternate days beginning from dosing period. The average tumor volumes, percent Tumor Growth Inhibition (TGI) and % change in body weights were compared relative to Vehicle control animals. The means, statistical analysis and the comparison between groups were calculated using Student's t-test in Excel.

[1] = In vivo efficacy in experimental autoimmune encephalomyelitis (EAE) model of MS; set-up: species or system mouse; details: female C57Bl/6 mice, 50 to 125 mg/kg b.i.d.
From the text: Experimental autoimmune encephalomyelitis (EAE) is a T-cell-mediated autoimmune disease of the CNS which shares many clinical and histopathological features with human multiple sclerosis (MS). EAE is the most commonly used animal model of MS. […] Cytokines IL-23, IL-6 and IL-17, which are either critical for Th1 and Th17 differentiation or produced by these T cells, play a critical and non-redundant role in EAE development. Therefore, drugs targeting production of these cytokines are likely to have therapeutic potential in treatment of MS.
Compounds of Formula I were administered at 50 to 125 mg/kg b.i.d. from time of immunization to EAE mice to assess anti-inflammatory activity. In this model, EAE is induced by MOG35-55/CFA immunization and pertussis toxin injection in female C57Bl/6 mice.

[2] = system: TH1, Th2 and Th17 cytokines; assay: Ex vivo effects on T cell function from splenocyte and lymphocyte cultures stimulated with external MOG; format: in vivo, mouse; details: MOG stimulation 72 hours, mice treated 11 days b.i.d
Procedure: Mice were immunized with MOG/CFA and simultaneously treated with the compound for 11 days on a b.i.d regimen. Inguinal Lymph node and spleen were harvested, cultures were set up for lymphocytes and splenocytes and stimulated with external antigen (MOG) for 72 hours. Supernatants from these cultures were analyzed for TH1, Th2 and Th17 cytokines using a Cytometric Bead Array assay.

[3] = In vivo efficacy in rat collagen-induced arthritis; details: female Lewis rats, dosed Day 11 to Day 17
Procedure: Rat collagen-induced arthritis is an experimental model of polyarthritis that has been widely used for preclinical testing of numerous anti-arthritic agents. Following administration of collagen, this model establishes a measurable polyarticular inflammation, marked cartilage destruction in association with pannus formation and mild to moderate bone resorption and periosteal bone proliferation. In this model, collagen was administered to female Lewis strain of rats on Day 1 and 7 of study and dosed with compounds from Day 11 to Day 17. Test compounds were administered at 25 mg/kg to 120 mg/kg b.i.d and 7.5 mg/kg to 30 mg/kg q.d dose to assess the potential to inhibit the inflammation (including paw swelling), cartilage destruction and bone resorption in arthritic rats, using a model in which the treatment is administered after the disease has been established.

IC50 (hIL-6 mRNA)	SMILES	EC170 (hApoA-1 mRNA)	In vivo activity (MV4-11 cells)	In vivo activity [1]	In vivo activity [2]	In vivo activity [3]
≤ 0.3 µM	Cc1noc(C)c1-c1cc(-c2c(C)noc2C)c2nc[nH]c2c1 [Example Compound 1, 4,4′-(1H-benzo[d]imidazole-4,6-diyl)bis(3,5-dimethylisoxazole)]	0.3 to 3 µM	Active	Active	Active	Active
0.3 to 3 µM	Cc1nc2c(-c3c(C)noc3C)cc(-c3c(C)noc3C)cc2[nH]1 [Example Compound 6, 4,4′-(2-methyl-1H-benzo[d]imidazole-4,6-diyl)bis(3,5-dimethylisoxazole)]		Active	Active	Active	
≤ 0.3 µM	Cc1nc2c(-c3cccnc3C)cc(-c3c(C)noc3C)cc2[nH]1 [Example Compound 41, 3,5-dimethyl-4-(2-methyl-4-(2-methylpyridin-3-yl)-1H-benzo[d]imidazol-6-yl)isoxazole]	≤ 0.3 µM	Active			Active
≤ 0.3 µM	Cc1nc2c(-c3c(C)nn(C)c3C)cc(-c3c(C)noc3C)cc2[nH]1 [Example Compound 49, 3,5-dimethyl-4-(2-methyl-4-(1,3,5-trimethyl-1H-pyrazol-4-yl)-1H-benzo[d]imidazol-6-yl)isoxazole]	≤ 0.3 µM	Active			
